Laboratory results published in ChEMBL document CHEMBL1909046, “DrugMatrix in vitro pharmacology data”.

What was measured:
[1] = molecular target: Aldo-keto reductase family 1 member B1 (Rattus norvegicus, UniProt P07943); experiment: biochemical; format: tissue-based, Lens of camera-type eye;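 further: inhibition of aldose reductase enzyme activity, measured with DL-glyceraldehyde as the substrate; in other assays of this panel Not Active means under 50% inhibition at 10 µM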
[2] = DRUGMATRIX: Atrial Natriuretic Factor (ANF) radioligand binding (ligand: [125I] ANF (rat)); format: cell membranes, Cavia porcellus, Dunkin-Hartley, Adrenal gland, Membrane; conditions: Not Active = under 50% inhibition at 10 µM
[3] = DRUGMATRIX: Sigma2 radioligand binding (ligand: [3H] Ifenprodil); format: cell membranes, Rattus norvegicus, Wistar, Brain, Membrane; conditions: Not Active = under 50% inhibition at 10 µM
[4] = molecular target: T1, C-X-C chemokine receptor type 1 (Homo sapiens, UniProt P25024); further: in other assays of this panel Not Active means under 50% inhibition at 10 µM
T1 sequence (P25024 whole entry): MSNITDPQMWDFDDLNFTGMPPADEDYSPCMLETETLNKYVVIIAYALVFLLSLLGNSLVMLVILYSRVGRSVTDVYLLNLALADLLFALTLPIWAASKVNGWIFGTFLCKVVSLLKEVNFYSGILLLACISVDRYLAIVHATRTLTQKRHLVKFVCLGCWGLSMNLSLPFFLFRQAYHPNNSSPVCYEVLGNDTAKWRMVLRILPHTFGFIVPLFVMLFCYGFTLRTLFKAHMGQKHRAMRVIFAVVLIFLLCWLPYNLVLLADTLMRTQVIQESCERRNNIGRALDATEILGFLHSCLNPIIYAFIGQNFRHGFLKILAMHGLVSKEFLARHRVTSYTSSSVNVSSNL

[5] = DRUGMATRIX: Leukotriene, BLT (LTB4) radioligand binding (ligand: [3H]LTB4); format: cell membranes, Membrane; conditions: u-937, Not Active = under 50% inhibition at 10 µM
[6] = DRUGMATRIX: Potassium Channel [KATP] radioligand binding (ligand: [3H] Glyburide); format: cell membranes, Membrane; conditions: hit-t15; Not Active = under 50% inhibition at 10 µM
[7] = DRUGMATRIX: Purinergic P2X radioligand binding (ligand: [3H] alpha, beta-Methylene-ATP); format: cell membranes, Oryctolagus cuniculus, New Zealand albino, Urinary bladder, Membrane; conditions: Not Active = under 50% inhibition at 10 µM

C#C[C@]1(O)CC[C@H]2[C@@H]3[C@H](C)CC4=C(CCC(=O)C4)[C@H]3CC[C@@]21C [TIBOLONE]
Not Active: IC50 [1] | IC50 [2] | Ki [2] | IC50 [3] | Ki [3] | IC50 [4] | IC50 [5] | Ki [5] | IC50 [6] | Ki [6] | IC50 [7] | Ki [7]

CN1C(=O)OC(C)(C)C1=O [TRIMETHADIONE]
Not Active: IC50 [1] | IC50 [2] | Ki [2] | IC50 [3] | Ki [3] | IC50 [4] | IC50 [5] | Ki [5] | IC50 [6] | Ki [6] | IC50 [7] | Ki [7]

OC[C@@H](O)[C@@H](O)[C@H](O)[C@H](O)CO [MANNITOL]
Not Active: IC50 [1] | IC50 [2] | Ki [2] | IC50 [3] | Ki [3] | IC50 [4] | IC50 [5] | Ki [5] | IC50 [6] | Ki [6] | IC50 [7] | Ki [7]

CCN(CC)C(=S)SSC(=S)N(CC)CC
7.58 µM: Ki ([5]; read-out: Ki)
29.9 µM: IC50 ([5]; read-out: IC50)
46.5 µM: Ki ([3]; read-out: Ki)
75.6 µM: IC50 ([3]; read-out: IC50)
Not Active: IC50 [1] | IC50 [2] | Ki [2] | IC50 [4] | IC50 [6] | Ki [6] | IC50 [7] | Ki [7]

O=C(O)c1cc(/N=N/c2ccc(S(=O)(=O)Nc3ccccn3)cc2)ccc1O [SULFASALAZINE]
17 µM: IC50 ([1]; read-out: IC50)
Not Active: IC50 [2] | Ki [2] | IC50 [3] | Ki [3] | IC50 [4] | IC50 [5] | Ki [5] | IC50 [6] | Ki [6] | IC50 [7] | Ki [7]

O=C(c1ccccc1)c1ccc2n1CCC2C(=O)O (stereo not given) [KETOROLAC]
6.11 µM: IC50 ([1]; read-out: IC50)
Not Active: IC50 [2] | Ki [2] | IC50 [3] | Ki [3] | IC50 [4] | IC50 [5] | Ki [5] | IC50 [6] | Ki [6] | IC50 [7] | Ki [7]

CC[C@H](C)[C@@H](CO[C@@H](Cc1ccccc1)C(=O)N[C@@H](CCS(C)(=O)=O)C(=O)OC(C)C)NC[C@@H](N)CS
Not Active: IC50 [1] | IC50 [2] | Ki [2] | IC50 [3] | Ki [3] | IC50 [4] | IC50 [5] | Ki [5] | IC50 [6] | Ki [6] | IC50 [7] | Ki [7]

CC(C)(C)NC[C@H](O)COc1cccc2c1CCCC2=O [LEVOBUNOLOL]
Not Active: IC50 [1] | IC50 [2] | Ki [2] | IC50 [3] | Ki [3] | IC50 [4] | IC50 [5] | Ki [5] | IC50 [6] | Ki [6] | IC50 [7] | Ki [7]

C[N+]1(C)[C@@H]2C[C@@H](OC(=O)[C@H](CO)c3ccccc3)C[C@H]1[C@@H]1O[C@@H]12.[Br-] [METHSCOPOLAMINE BROMIDE]
Not Active: IC50 [1] | IC50 [2] | Ki [2] | IC50 [3] | Ki [3] | IC50 [4] | IC50 [5] | Ki [5] | IC50 [6] | Ki [6] | IC50 [7] | Ki [7]

CO[C@@H]1[C@@H](OC)[C@H](C)[C@@](O)(CC(=O)O)O[C@H]1[C@H](C)[C@H]1O[C@@]2(CC[C@@](C)([C@H]3CC[C@@](C)([C@@H]4O[C@@H]([C@H]5O[C@](C)(O)[C@H](C)C[C@@H]5C)C[C@@H]4O[C@@H]4C[C@H](OC)[C@@H](OC)[C@H](C)O4)O3)O2)C[C@H](O)[C@H]1C.N [MADURAMICIN]
Not Active: IC50 [1] | IC50 [2] | Ki [2] | IC50 [3] | Ki [3] | IC50 [4] | IC50 [5] | Ki [5] | IC50 [6] | Ki [6] | IC50 [7] | Ki [7]

Cc1nnc(NS(=O)(=O)c2ccc(N)cc2)s1 [SULFAMETHIZOLE]
Not Active: IC50 [1] | IC50 [2] | Ki [2] | IC50 [3] | Ki [3] | IC50 [4] | IC50 [5] | Ki [5] | IC50 [6] | Ki [6] | IC50 [7] | Ki [7]

Cc1cnc(NC(=O)C2=C(O)c3ccccc3S(=O)(=O)N2C)s1 [MELOXICAM]
Not Active: IC50 [1] | IC50 [2] | Ki [2] | IC50 [3] | Ki [3] | IC50 [4] | IC50 [5] | Ki [5] | IC50 [6] | Ki [6] | IC50 [7] | Ki [7]

CC1=C(/C=C/C(C)=C/C=C/C(C)=C/C(=O)O)C(C)(C)CCC1 [TRETINOIN]
Not Active: IC50 [1] | IC50 [2] | Ki [2] | IC50 [3] | Ki [3] | IC50 [4] | IC50 [5] | Ki [5] | IC50 [6] | Ki [6] | IC50 [7] | Ki [7]

Cc1ccc(S(=O)(=O)NC(=O)NN2CCCCCC2)cc1 [TOLAZAMIDE]
Not Active: IC50 [1] | IC50 [2] | Ki [2] | IC50 [3] | Ki [3] | IC50 [4] | IC50 [5] | Ki [5] | IC50 [6] | Ki [6] | IC50 [7] | Ki [7]

Cc1cccc(C)c1NC(=O)C(C)N (stereo not given) [TOCAINIDE]
Not Active: IC50 [1] | IC50 [2] | Ki [2] | IC50 [3] | Ki [3] | IC50 [4] | IC50 [5] | Ki [5] | IC50 [6] | Ki [6] | IC50 [7] | Ki [7]

Cc1cc2c(s1)Nc1ccccc1N=C2N1CCN(C)CC1 [OLANZAPINE]
Not Active: IC50 [1] | IC50 [4]

COC(=O)Nc1nc2ccc(C(=O)c3ccccc3)cc2[nH]1 [MEBENDAZOLE]
Not Active: IC50 [1] | IC50 [2] | Ki [2] | IC50 [3] | Ki [3] | IC50 [4] | IC50 [5] | Ki [5] | IC50 [6] | Ki [6] | IC50 [7] | Ki [7]

O=C1CC[C@@]2(O)[C@H]3Cc4ccc(O)c5c4[C@@]2(CCN3CC2CC2)[C@H]1O5 [NALTREXONE]
Not Active: IC50 [1] | IC50 [2] | Ki [2] | IC50 [3] | Ki [3] | IC50 [4] | IC50 [5] | Ki [5] | IC50 [6] | Ki [6] | IC50 [7] | Ki [7]

CN(C)CCC=C1c2ccccc2COc2ccccc21 [DOXEPIN]
Not Active: IC50 [1] | IC50 [4]

CNCCCC12CCC(c3ccccc31)c1ccccc12 [MAPROTILINE]
Not Active: IC50 [1] | IC50 [4]
